What was measured:
[1] = xn = mol fraction of the nth substance listed; conditions: 101 kPa, Liquid
[2] = molar heat capacity at constant pressure; xn = mol fraction of the nth substance listed; conditions: 101 kPa, Liquid

C[N+](=O)[O-] [nitromethane] + CCCC[n+]1cccc(C)c1.F[B-](F)(F)F
Conditions	mass density, [1] [kg/m3]	molar heat capacity at constant pressure, [2] [J/K/mol]
293.15 K, x2 = 0	1140.2	106.6
293.15 K, x2 = 0.0517	1153.4	120.3
293.15 K, x2 = 0.1038	1161.5	134.2
293.15 K, x2 = 0.1952	1170.3	159.9
293.15 K, x2 = 0.3078	1176.7	–
293.15 K, x2 = 0.3563	1178.7	205.2
293.15 K, x2 = 0.3998	1180.1	217.4
293.15 K, x2 = 0.5121	1183	249.2
293.15 K, x2 = 0.5994	1184.6	273.7
293.15 K, x2 = 0.6856	1185.8	297.7
293.15 K, x2 = 0.7863	1186.9	326.4
293.15 K, x2 = 0.8842	1187.7	353.6
293.15 K, x2 = 0.9034	1187.9	359.1
293.15 K, x2 = 0.941	1188.2	369.8
298.15 K, x2 = 0	1133.4	106.9
298.15 K, x2 = 0.0517	1147.4	120.5
298.15 K, x2 = 0.1038	1156	134.7
298.15 K, x2 = 0.1952	1165.4	160.4
298.15 K, x2 = 0.3078	1172.2	–
298.15 K, x2 = 0.3563	1174.3	206
298.15 K, x2 = 0.3998	1175.9	218.3
298.15 K, x2 = 0.5121	1179	250.2
298.15 K, x2 = 0.5994	1180.7	274.8
298.15 K, x2 = 0.6856	1182.1	299
298.15 K, x2 = 0.7863	1183.3	327.8
298.15 K, x2 = 0.8842	1184.2	355.3
298.15 K, x2 = 0.9034	1184.4	360.8
298.15 K, x2 = 0.941	1184.8	371.6
303.15 K, x2 = 0	1126.6	107.3
303.15 K, x2 = 0.0517	1141.3	120.9
303.15 K, x2 = 0.1038	1150.5	135.2
303.15 K, x2 = 0.1952	1160.4	161
303.15 K, x2 = 0.3078	1167.8	–
303.15 K, x2 = 0.3563	1170	206.9
303.15 K, x2 = 0.3998	1171.6	219.3
303.15 K, x2 = 0.5121	1175	251.4
303.15 K, x2 = 0.5994	1176.9	276.2
303.15 K, x2 = 0.6856	1178.3	300.6
303.15 K, x2 = 0.7863	1179.7	329.6
303.15 K, x2 = 0.8842	1180.7	357.3
303.15 K, x2 = 0.9034	1180.9	362.9
303.15 K, x2 = 0.941	1181.3	373.7
308.15 K, x2 = 0	1119.7	107.7
308.15 K, x2 = 0.0517	1135.3	121.3
308.15 K, x2 = 0.1038	1144.9	135.7
308.15 K, x2 = 0.1952	1155.5	161.8
308.15 K, x2 = 0.3078	1163.3	–
308.15 K, x2 = 0.3563	1165.7	208
308.15 K, x2 = 0.3998	1167.4	220.5
308.15 K, x2 = 0.5121	1171	252.8
308.15 K, x2 = 0.5994	1173.1	277.9
308.15 K, x2 = 0.6856	1174.6	302.5
308.15 K, x2 = 0.7863	1176.1	331.7
308.15 K, x2 = 0.8842	1177.2	359.7
308.15 K, x2 = 0.9034	1177.4	365.3
308.15 K, x2 = 0.941	1177.9	376.2
313.15 K, x2 = 0	1112.9	108.2
313.15 K, x2 = 0.0517	1129.2	121.9
313.15 K, x2 = 0.1038	1139.4	136.4
313.15 K, x2 = 0.1952	1150.6	162.5
313.15 K, x2 = 0.3078	1158.8	–
313.15 K, x2 = 0.3563	1161.4	209.2
313.15 K, x2 = 0.3998	1163.2	221.9
313.15 K, x2 = 0.5121	1167	254.4
313.15 K, x2 = 0.5994	1169.2	279.8
313.15 K, x2 = 0.6856	1170.9	304.6
313.15 K, x2 = 0.7863	1172.5	334.1
313.15 K, x2 = 0.8842	1173.7	362.4
313.15 K, x2 = 0.9034	1174	368.1
313.15 K, x2 = 0.941	1174.4	379
318.15 K, x2 = 0	1106	108.6
318.15 K, x2 = 0.0517	1123.1	122.4
318.15 K, x2 = 0.1038	1133.9	137.1
318.15 K, x2 = 0.1952	1145.6	163.5
318.15 K, x2 = 0.3078	1154.4	–
318.15 K, x2 = 0.3563	1157.1	210.6
318.15 K, x2 = 0.3998	1159.1	223.5
318.15 K, x2 = 0.5121	1163.1	256.3
318.15 K, x2 = 0.5994	1165.4	281.9
318.15 K, x2 = 0.6856	1167.2	307
318.15 K, x2 = 0.7863	1169	336.8
318.15 K, x2 = 0.8842	1170.3	365.5
318.15 K, x2 = 0.9034	1170.5	371.1
318.15 K, x2 = 0.941	1171	382.3
